# Key:
# Assay type in all cases: biochemical, Acidicaldus organivorans USBA-GBX-499
# modified esterase 499EST [1] = experiment: Effect of organic solvents on the modified esterase; conditions: for % actividad relativa: pNPC8, 55° C., pH 9.0; for esterase activity increased to: solvent at a concentration of 15% and 30%
# Procedure: (§1) The activity of the modified enzyme was determined spectrophotometrically at 405 nm in a range of temperatures between 45 and 75° C., using p-nitro phenyl of other chains C6 to C10 (Sigma-Aldrich) as substrate. One unit of esterase activity was defined as the capacity of the enzyme to release 1 μmol min^−1 of p-nitrophenol under the essay conditions. The molar absorbance coefficient was of 16.900 M^−1 cm^−1. The mixture consisted of 448 μl of the Tris-HCl 50 mM buffer at 9.0 pH that contained 50 μl of p-nitrophenyl diluted in isopropanol and 2 μl of the solution stock of the protein. All the assays were made by triplicate and the average was calculated.
# (§2) The evaluation of metallic, solvent and detergent ions and inhibitors of the modified enzyme was carried out incubating the enzyme in the presence of each of them for one hour at 30° C. The evaluation established the stability of the referenced enzyme at a control for which the enzyme was in absence of the additive. The result was expressed in percentage of residual activity, being 100% the control.
# Effect of organic solvents. The activity of the enzyme was evaluated in presence of different organic solvents. Two concentrations were evaluated, 15 and 30% of 1 butanol, 2 butanol, acetonitrile, acetone, 1-propanol, 2-propanol, methanol, ethanol, glycerol, dimethyl sulfoxide (DMSO), dimethyl formamide (DMF) (Table 3)
# modified esterase 499EST [2] = experiment: Effect of metallic ions on the activity of the modified esterase 499EST; conditions: for Actividad relativa (%): pNPC8, 55° C., pH 9.0, control without additives = 100%
# Procedure: as §1, §2
# It was evaluated the effect of metallic ions on the enzyme activity. The ions evaluated were: CaCl2, FeCl3, MgCl2, CoCl2, NiCl2, ZnCl2, CuCl2 and MnCl2, the concentrations used were 1 mM and 10 mM. The effect of the ions Fe^3+ was evaluated at concentrations of 0.2 mM-10 mM, and its influence on the thermo stability between 50 and 65° C. (Table 1).
# 499EST = experiment: Effect of inhibitors on the modified enzyme 499EST; conditions: inhibitor 5 mM; one hour at 30° C.
# Procedure: as §1, §2
# (§3) The effect of the detergents, sodium dodecyl sulfate (SDS), Tween 20, Tween 80, Triton X-100, were evaluated at concentrations of 1 and 5% (v/v) (Table 2). In the evaluations it was determined the effect of inhibitors such phenylmethanesulfonyl fluoride-PMSF, ethylenediaminetetraacetic acid, EDTA, 2-mercaptoethanol (2-ME), dithiothreitol (DTT), the evaluated concentration was of 5 mM.
# modified esterase 499EST [3] = experiment: Effect of detergents on the modified esterase 499EST; conditions: for % actividad relativa: pNPC8, 55° C., pH 9.0, control without additives = 100%
# Procedure: as §1, §2, §3
compound,measurement,setting,value
1-butanol,% actividad relativa,modified esterase 499EST [1]; organic solvent 15%,1.5%
same,% actividad relativa,modified esterase 499EST [1]; organic solvent 30%,0.0%
"[Cl-].[Cl-].[Mg+2] [Mg^2+, MgCl2]",Actividad relativa (%),modified esterase 499EST [2]; ion 1 mM,76%
same,Actividad relativa (%),modified esterase 499EST [2]; ion 10 mM,3%
same,Actividad relativa (%),"modified esterase 499EST [2]; ion 10 mM, listed as Mg^+2",highest enzyme inhibition
"[Cl][Mn][Cl] [Mn^2+, MnCl2]",Actividad relativa (%),modified esterase 499EST [2]; ion 1 mM,252%
same,Actividad relativa (%),modified esterase 499EST [2]; ion 10 mM,127%
"O[C@H](CS)[C@H](O)CS (racemic) [DTT, dithiothreitol]",inhibition of the enzymatic activity,499EST,totally inhibits
CCCCCCCC/C=C\CCCCCCCC(=O)OCCOCC(OCCO)C1OCC(OCCO)C1OCCO (centres unmarked) [Tween 80],% actividad relativa,modified esterase 499EST [3]; detergent 1%,85%
same,% actividad relativa,modified esterase 499EST [3]; detergent 5%,32%
"CC(C)=O [Acetona, acetone]",% actividad relativa,modified esterase 499EST [1]; organic solvent 15%,72.0%
same,% actividad relativa,modified esterase 499EST [1]; organic solvent 30%,9.7%
"CCCCCCCCCCCCOS(=O)(=O)[O-].[Na+] [SDS, sodium dodecyl sulfate]",effect of detergent on lipolytic activity,modified esterase 499EST [3]; 1 and 5% (v/v),strongly inhibits
same,% actividad relativa,modified esterase 499EST [3]; detergent 1%,8%
same,% actividad relativa,modified esterase 499EST [3]; detergent 5%,6%
CCC(C)O (centres unmarked) [2-butanol],% actividad relativa,modified esterase 499EST [1]; organic solvent 15%,16.3%
same,% actividad relativa,modified esterase 499EST [1]; organic solvent 30%,14.7%
CC(C)O [2-propanol],% actividad relativa,modified esterase 499EST [1]; organic solvent 15%,80.0%
same,% actividad relativa,modified esterase 499EST [1]; organic solvent 30%,31.3%
"C[S+](C)[O-] [DMSO, dimethyl sulfoxide]",% actividad relativa,modified esterase 499EST [1]; organic solvent 15%,180.0%
same,% actividad relativa,modified esterase 499EST [1]; organic solvent 30%,200.2%
same,esterase activity increased to,modified esterase 499EST [1],200%
CCCO [1-propanol],% actividad relativa,modified esterase 499EST [1]; organic solvent 15%,26.8%
same,% actividad relativa,modified esterase 499EST [1]; organic solvent 30%,24.81%
"[Ca+2].[Cl-].[Cl-] [Ca^2+, CaCl2]",Actividad relativa (%),modified esterase 499EST [2]; ion 1 mM,9%
same,Actividad relativa (%),modified esterase 499EST [2]; ion 10 mM,7%
same,Actividad relativa (%),"modified esterase 499EST [2]; ion 10 mM, listed as Ca^+2",highest enzyme inhibition
"CO [Metanol, methanol]",% actividad relativa,modified esterase 499EST [1]; organic solvent 15%,3.0%
same,% actividad relativa,modified esterase 499EST [1]; organic solvent 30%,0.0%
"[Cl][Fe]([Cl])[Cl] [Fe^3+, FeCl3]",Actividad relativa (%),modified esterase 499EST [2]; ion 1 mM,111%
same,Actividad relativa (%),modified esterase 499EST [2]; ion 10 mM,342%
same,increase of the specific activity of the enzyme,modified esterase 499EST [2]; ion concentration from 2 to 10 mM,up to 3 times
"CN(C)C=O [DMF, dimethyl formamide]",% actividad relativa,modified esterase 499EST [1]; organic solvent 15%,12.4%
same,% actividad relativa,modified esterase 499EST [1]; organic solvent 30%,12.4%
"O=C(O)CN(CCN(CC(=O)O)CC(=O)O)CC(=O)O [EDTA, ethylenediaminetetraacetic acid]",decrease in the relative enzymatic activity,499EST,9%
"CC#N [Acetonitrilo, acetonitrile]",% actividad relativa,modified esterase 499EST [1]; organic solvent 15%,17.0%
same,% actividad relativa,modified esterase 499EST [1]; organic solvent 30%,0.0%
"CCO [Etanol, ethanol]",% actividad relativa,modified esterase 499EST [1]; organic solvent 15%,22%
same,% actividad relativa,modified esterase 499EST [1]; organic solvent 30%,12.9%
"O=S(=O)(F)Cc1ccccc1 [PMSF, phenylmethanesulfonyl fluoride]",activity detected,499EST,80%
"[Cl][Cu][Cl] [Cu^2+, CuCl2]",Actividad relativa (%),modified esterase 499EST [2]; ion 1 mM,16%
same,Actividad relativa (%),modified esterase 499EST [2]; ion 10 mM,0%
same,Actividad relativa (%),"modified esterase 499EST [2]; ion 10 mM, listed as Cu^+2",highest enzyme inhibition
"[Cl-].[Cl-].[Co+2] [Co^2+, CoCl2]",Actividad relativa (%),modified esterase 499EST [2]; ion 1 mM,74%
same,Actividad relativa (%),modified esterase 499EST [2]; ion 10 mM,23%
same,Actividad relativa (%),"modified esterase 499EST [2]; ion 10 mM, listed as Co^+2",highest enzyme inhibition
"[Cl-].[Cl-].[Zn+2] [Zn^2+, ZnCl2]",Actividad relativa (%),modified esterase 499EST [2]; ion 1 mM,190%
same,Actividad relativa (%),modified esterase 499EST [2]; ion 10 mM,21%
same,Actividad relativa (%),"modified esterase 499EST [2]; ion 10 mM, listed as Zn^+2",highest enzyme inhibition
"OCCS [β-mercaptoethanol, 2-mercaptoethanol]",decrease in the relative enzymatic activity,499EST,12%
"OCC(O)CO [Glicerol, glycerol]",% actividad relativa,modified esterase 499EST [1]; organic solvent 15%,234.8%
same,% actividad relativa,modified esterase 499EST [1]; organic solvent 30%,250.3%
same,esterase activity increased to,modified esterase 499EST [1],250%
